# Experimental data reported in ChEMBL document CHEMBL1938339, “Tripeptidic BACE1 inhibitors devised by in-silico conformational structure-based design” (Bioorg Med Chem Lett, 2012).
# Target: Beta-secretase 1 (Homo sapiens) (UniProt P56817)
# Test: Inhibition of human recombinant BACE1 at 2 uM by FRET assay
# Chain of Beta-secretase 1 (Homo sapiens) (P56817 whole entry): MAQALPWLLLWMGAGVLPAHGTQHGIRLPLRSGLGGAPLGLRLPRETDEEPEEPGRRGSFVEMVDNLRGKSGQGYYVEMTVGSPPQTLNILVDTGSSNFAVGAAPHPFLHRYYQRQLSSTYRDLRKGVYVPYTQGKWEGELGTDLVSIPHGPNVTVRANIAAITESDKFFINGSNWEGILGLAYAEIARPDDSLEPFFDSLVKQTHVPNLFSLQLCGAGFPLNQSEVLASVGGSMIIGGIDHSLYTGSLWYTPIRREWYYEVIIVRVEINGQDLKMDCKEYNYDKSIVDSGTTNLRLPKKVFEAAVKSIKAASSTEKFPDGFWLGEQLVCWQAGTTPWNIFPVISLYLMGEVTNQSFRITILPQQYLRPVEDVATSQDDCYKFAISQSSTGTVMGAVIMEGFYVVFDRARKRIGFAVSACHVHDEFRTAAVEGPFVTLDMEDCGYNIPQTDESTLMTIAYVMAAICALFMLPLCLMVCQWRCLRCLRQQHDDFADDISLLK
row,Structure (SMILES),inhibition [%]
1,CC(C)[C@H](NC(=O)[C@@H](N)CNC(=O)c1[nH]c(=O)[nH]c(=O)c1F)C(=O)N[C@@H](CC1CCCCC1)C(=O)NC(C)(C)Cc1cc(F)cc(F)c1,91
2,CC(C)C[C@H](NC(=O)[C@@H](NC(=O)[C@@H](N)CNC(=O)c1[nH]c(=O)[nH]c(=O)c1F)C(C)C)C(=O)N1CCCCC1,91
3,COc1ccc(CC(C)(C)NC(=O)[C@H](CC2CCCCC2)NC(=O)[C@@H](NC(=O)[C@@H](N)CNC(=O)c2[nH]c(=O)[nH]c(=O)c2F)C(C)C)cc1,85
4,CC(C)[C@H](NC(=O)[C@@H](N)CNC(=O)c1[nH]c(=O)[nH]c(=O)c1F)C(=O)N[C@@H](CC1CCCCC1)C(=O)NC(C)(C)Cc1ccccc1,92
5,CC(C)C[C@H](NC(=O)[C@@H](NC(=O)[C@@H](N)CNC(=O)c1[nH]c(=O)[nH]c(=O)c1F)C(C)C)C(=O)N1CCCC1,88
6,CC(C)C[C@H](NC(=O)[C@@H](NC(=O)[C@@H](N)CNC(=O)c1nn[nH]n1)C(C)C)C(=O)NC(C)(C)Cc1ccccc1,70
7,COc1cccc(CC(C)(C)NC(=O)[C@H](CC(C)C)NC(=O)[C@@H](NC(=O)[C@@H](N)CNC(=O)c2cc(O)ccc2O)C(C)C)c1,46
8,CC(C)[C@H](NC(=O)[C@@H](N)CNC(=O)c1nn[nH]n1)C(=O)N[C@@H](CC1CCCCC1)C(=O)NC(C)(C)Cc1ccccc1,76
9,COc1cccc(CC(C)(C)NC(=O)[C@H](CC(C)C)NC(=O)[C@@H](NC(=O)[C@@H](N)CNC(=O)c2[nH]c(=O)[nH]c(=O)c2F)C(C)C)c1,84
10,CC(C)C[C@H](NC(=O)[C@@H](NC(=O)[C@@H](N)CNC(=O)c1[nH]c(=O)[nH]c(=O)c1F)C(C)C)C(=O)NC(C)(C)Cc1ccc(Br)cc1,85
11,CC(C)[C@H](NC(=O)[C@@H](N)CNC(=O)c1[nH]c(=O)[nH]c(=O)c1F)C(=O)N[C@@H](CC1CCCCC1)C(=O)NC(C)(C)Cc1ccc(Br)cc1,92
12,COc1ccc(CC(C)(C)NC(=O)[C@H](CC2CCCCC2)NC(=O)[C@@H](NC(=O)[C@@H](N)CNC(=O)c2cc(O)ccc2O)C(C)C)cc1,45
13,CC(C)[C@H](NC(=O)[C@@H](N)CNC(=O)c1[nH]c(=O)[nH]c(=O)c1F)C(=O)N[C@@H](CC1CCCCC1)C(=O)NC(C)(C)Cc1ccc(I)cc1I,96
14,CC(C)[C@H](NC(=O)[C@@H](N)CNC(=O)c1cc(O)ccc1O)C(=O)N[C@@H](CC1CCCCC1)C(=O)NC(C)(C)Cc1ccccc1,80
15,CC(C)C[C@H](NC(=O)[C@@H](NC(=O)[C@@H](N)CNC(=O)c1cc(O)ccc1O)C(C)C)C(=O)NC(C)(C)Cc1ccccc1,77
16,CC(C)[C@H](NC(=O)[C@@H](N)CNC(=O)c1cc(O)ccc1O)C(=O)N[C@@H](CC1CCCCC1)C(=O)NC(C)(C)Cc1ccc(Br)cc1,81
17,Cc1ccc(CC(C)(C)NC(=O)[C@H](CC2CCCCC2)NC(=O)[C@@H](NC(=O)[C@@H](N)CNC(=O)c2[nH]c(=O)[nH]c(=O)c2F)C(C)C)cc1,88
18,CC(C)C[C@H](NC(=O)[C@@H](NC(=O)[C@@H](N)CNC(=O)c1[nH]c(=O)[nH]c(=O)c1F)C(C)C)C(=O)NC(C)(C)Cc1cc(F)cc(F)c1,86
19,CC(C)C[C@H](NC(=O)[C@@H](NC(=O)[C@@H](N)CNC(=O)c1cc(O)ccc1O)C(C)C)C(=O)NC(C)(C)Cc1cc(F)cc(F)c1,59
20,COc1ccc(CC(C)(C)NC(=O)[C@H](CC(C)C)NC(=O)[C@@H](NC(=O)[C@@H](N)CNC(=O)c2[nH]c(=O)[nH]c(=O)c2F)C(C)C)cc1,83
21,Cc1ccccc1CC(C)(C)NC(=O)[C@H](CC1CCCCC1)NC(=O)[C@@H](NC(=O)[C@@H](N)CNC(=O)c1[nH]c(=O)[nH]c(=O)c1F)C(C)C,84
22,CC(C)[C@H](NC(=O)[C@@H](N)CCC(=O)O)C(=O)N[C@@H](CC1CCCCC1)C(=O)NC(C)(C)Cc1ccccc1,16

row,Structure (SMILES),inhibition [%]
1,CC(C)C[C@H](NC(=O)[C@@H](NC(=O)[C@@H](N)CCC(=O)O)C(C)C)C(=O)NC(C)(C)Cc1ccccc1,< 10
2,CC(C)C[C@H](NC(=O)[C@@H](NC(=O)[C@@H](N)CNC(=O)c1[nH]c(=O)[nH]c(=O)c1F)C(C)C)C(=O)NC(C)(C)Cc1ccc(I)cc1I,91
3,CC(C)C[C@H](NC(=O)[C@@H](NC(=O)[C@@H](N)CNC(=O)c1[nH]c(=O)[nH]c(=O)c1F)C(C)C)C(=O)N1CCCCCC1,89
4,COc1ccc(CC(C)(C)NC(=O)[C@H](CC(C)C)NC(=O)[C@@H](NC(=O)[C@@H](N)CNC(=O)c2cc(O)ccc2O)C(C)C)cc1,41
5,CC(C)[C@H](NC(=O)[C@@H](N)CNC(=O)c1[nH]c(=O)[nH]c(=O)c1F)C(=O)N[C@@H](CC1CCCCC1)C(=O)NC(C)(C)Cc1ccc([N+](=O)[O-])cc1,89
6,CC(C)[C@H](NC(=O)[C@@H](N)CNC(=O)c1cc(O)ccc1O)C(=O)N[C@@H](CC1CCCCC1)C(=O)NC(C)(C)Cc1ccc([N+](=O)[O-])cc1,80
7,CC(C)[C@H](NC(=O)[C@@H](N)CNC(=O)c1cc(O)ccc1O)C(=O)N[C@@H](CC1CCCCC1)C(=O)NC(C)(C)Cc1ccc(I)cc1I,88
8,COc1cccc(CC(C)(C)NC(=O)[C@H](CC2CCCCC2)NC(=O)[C@@H](NC(=O)[C@@H](N)CNC(=O)c2[nH]c(=O)[nH]c(=O)c2F)C(C)C)c1,77
9,CC(C)C[C@H](NC(=O)[C@@H](NC(=O)[C@@H](N)CNC(=O)c1[nH]c(=O)[nH]c(=O)c1F)C(C)C)C(=O)N1CCCCCCC1,85
10,CC(C)C[C@H](NC(=O)[C@@H](NC(=O)[C@@H](N)CNC(=O)c1cc(O)ccc1O)C(C)C)C(=O)NC(C)(C)Cc1ccc([N+](=O)[O-])cc1,45
11,CC(C)[C@H](NC(=O)[C@@H](N)CNC(=O)c1[nH]c(=O)[nH]c(=O)c1F)C(=O)N[C@@H](CC1CCCCC1)C(=O)NC(C)(C)CC1CCCCC1,88
12,CC(C)C[C@H](NC(=O)[C@@H](NC(=O)[C@@H](N)CNC(=O)c1[nH]c(=O)[nH]c(=O)c1F)C(C)C)C(=O)N1CCCCCCCC1,81
13,CC(C)C[C@H](NC(=O)[C@@H](NC(=O)[C@@H](N)CNC(=O)c1[nH]c(=O)[nH]c(=O)c1F)C(C)C)C(=O)NC(C)(C)Cc1ccccc1,90
14,COc1cccc(CC(C)(C)NC(=O)[C@H](CC2CCCCC2)NC(=O)[C@@H](NC(=O)[C@@H](N)CNC(=O)c2cc(O)ccc2O)C(C)C)c1,49
15,Cc1ccccc1CC(C)(C)NC(=O)[C@H](CC(C)C)NC(=O)[C@@H](NC(=O)[C@@H](N)CNC(=O)c1[nH]c(=O)[nH]c(=O)c1F)C(C)C,91
16,CC(C)C[C@H](NC(=O)[C@@H](NC(=O)[C@@H](N)CNC(=O)c1[nH]c(=O)[nH]c(=O)c1F)C(C)C)C(=O)NC(C)(C)Cc1ccc([N+](=O)[O-])cc1,27
17,Cc1ccccc1CC(C)(C)NC(=O)[C@H](CC1CCCCC1)NC(=O)[C@@H](NC(=O)[C@@H](N)CNC(=O)c1cc(O)ccc1O)C(C)C,54
18,CC(C)C[C@H](NC(=O)[C@@H](NC(=O)[C@@H](N)CNC(=O)c1cc(O)ccc1O)C(C)C)C(=O)NC(C)(C)Cc1ccc(I)cc1I,78
19,Cc1ccc(CC(C)(C)NC(=O)[C@H](CC(C)C)NC(=O)[C@@H](NC(=O)[C@@H](N)CNC(=O)c2cc(O)ccc2O)C(C)C)cc1,51
20,CC(C)C[C@H](NC(=O)[C@@H](NC(=O)[C@@H](N)CNC(=O)c1[nH]c(=O)[nH]c(=O)c1F)C(C)C)C(=O)NC(C)(C)CC1CCCCC1,91
21,Cc1ccc(CC(C)(C)NC(=O)[C@H](CC(C)C)NC(=O)[C@@H](NC(=O)[C@@H](N)CNC(=O)c2[nH]c(=O)[nH]c(=O)c2F)C(C)C)cc1,86
